From patent publication US7910579B2, “Benzoxazole derivatives” (Tohoku University, priority 2006, dated 2011)
Where two headings read alike, the source gives them in different places.

Columns and labels:
[1] = tested on: histidine-requiring Salmonella typhimurium TA100 and TA98 strains; details: cited from earlier work
[2] = biological target: T1, amyloid β protein in the brain section of an Alzheimer disease patient (Homo sapiens, UniProt P05067); assay: Staining test on a brain section of an Alzheimer disease patient: amyloid β protein; type: binding; details: for Binding to (staining of) amyloid β protein in the brain section of an Alzheimer disease patient: 100 μM solution in 50% ethanol, 10 minutes, paraffin brain section; for Specificity to amyloid β: statement in the description of formulae (II) to (VI)
T1 construct: from tissue; host or cells: paraffin-embedded temporal lobe and hippocampus of Alzheimer disease patients
From the text: (§1) (1) Brain specimens at the temporal lobe and the hippocampus of patients to which a definitive diagnosis of Alzheimer disease had been given, and those of normal senile persons were used. The specimens were given by our coworker, Fukushimura Hospital, Longevity Medicine Institute, and we were given their consent of use of the specimens for our study purpose by the bereaved of the patients (Fukushimura Hospital Ethical Review Board Approval No. 20).
(§2) (2) The paraffin-embedded brain tissue was cut Into slices having a thickness of 6 μm or 8 μm, and extended and dried on a slide. The paraffin brain section was steeped for paraffin removal in xylene twice for 10 minutes, 100% ethanol twice for 5 minutes, 90% ethanol for 5 minutes and running water for 10 minutes in that order.
(§3) (3) For pretreatment prior to the staining treatment with a compound of the invention, the sections were steeped for autofluorescence removal with lipofuscin. First, the paraffin-removed sections were dipped in 0.25% KMnO4 solution for 20 minutes. These were washed with PBS, twice for 2 minutes, then dipped in 0.1% K2S2O5/oxalic acid solution for about 5 seconds, and then further washed with PBS, three times for 2 minutes.
(§4) (4) About 150 μl of a 100 μM solution of a compound of the invention dissolved in 50% ethanol was dropwise applied to the section and reacted for 10 minutes. After dipped five times in tap water, the section was entrapped with Fluor Save Reagent (Calbiochem), and analyzed through microscopy with a fluorescence microscope (Nikon, Eclipse 80i). The images were taken with a digital camera (Nikon Dxm 1200F or Photometrics' Cool SNAP ES).
(1) After paraffin removal, the sections were washed in distilled water, twice for 2 minutes. Then, using ImmunoPen, the tissue was marked with a surrounding line; about 150 μl of formic acid was dropwise applied to the section and statically left at room temperature for 5 minutes. The section was washed with tap water for 5 minutes, then dipped in cold PBS-Tween 20 for 2 minutes, and thereafter about 150 μl of 0.05% trypsin solution was dropwise applied to it and reacted at 37° C. for 15 minutes.
(2) In an ice bath, this was washed with cold PBS-Tween 20, twice for 5 minutes, and then 2 drops of blocking serum were applied to it and reacted at 37° C. for 30 minutes. Excess water was removed, and then about 150 μl of a specific antibody to amyloid β protein, 6F/3D (by DAKO, 1/50 dilution) was dropwise applied to it, and reacted at 37° C. for 1 hour.
(3) Further, this was washed with cold PBS-Tween 20, 5 times for 2 minutes, and then 2 drops of an anti-mouse IgG (H+L), goat, biotin-binding solution were applied to it and reacted at 37° C. for 1 hour. Then, this was washed with cold PBS-Tween 20, three times for 2 minutes, and 2 drops of an ABC solution (streptoavidin-biotin-peroxidase composite solution) were applied to it, and left statically as such for 30 minutes. Again this was washed with cold PBS-Tween 20, three times for 2 minutes, and then about 150 μl of a DAB solution (10 mg of DAB was dissolved in 20 ml of 0.05 mol/liter tris-HCl buffer, and just before use, 100 μl of 3% hydrogen peroxide water was added to it) was dropwise applied to it for sufficiently staining it. Then, this was washed with distilled water for 1 minute to stop the reaction, then entrapped and observed through microscopy.

[3] = tested on: neurofibrillary tangle in the brain section of an Alzheimer disease patient; assay: Staining test on a brain section of an Alzheimer disease patient: neurofibrillary tangle; type: binding, human; details: 100 μM solution in 50% ethanol, 10 minutes, paraffin brain section
From the text: as §1, §2, §3
as §4, with “ES). […]” for “ES).”

[4] = tested on: histidine-requiring Salmonella typhimurium TA100 and TA98 strains; assay: Mutagenicity Test (reverse mutation test); type: cell-based
Protocol: In view of their use, it is desirable that the compounds of the invention have no mutagenicity or have little mutagenicity to a level causing no problem. For investigating the gene mutagenesis of the compounds of the invention, herein carried out was a reverse mutation test with histidine-requiring Salmonella typhimurium TA100 and TA98 strains. Two tests were carried out. One is a test for dose determination test; and the other is for mutagenicity.
The test methods and the mutagenicity of the compounds of the invention are mentioned below. In the dose determination test, six doses of 0.160, 0.800, 4.00, 20.0, 100 and 500 μg/plate (common ratio 5) were tried.
As a result of the dose determination test, when the mutagenicity of the test compound was admitted, then the actual test for mutagenicity was carried out, using the dose capable of giving an accurate dose-reaction curve. When no mutagenicity of the test compound was admitted in the dose determination test and when the growth inhibition of the test cells was admitted therein, then the dose to present the growth inhibition was taken as the maximum dose; and when the growth inhibition was not admitted, then a dose of 5000 μg/plate was taken as the maximum dose. With that, the actual test for mutagenicity was carried out on the level of 6 doses (common ratio 2).
First, a test compound was dissolved or suspended in DMSO, then diluted in order to prepare test compound liquids having a varying concentration.
100 μl of a test compound liquid or a negative control (DMSO) solution was put into a sterilized test tube. Then, for the case in the absence of a metabolic activation system (−S9mix), 500 μl of 0.1 mol/liter sodium-phosphate buffer (pH 7.4) was added to it; and for the case in the presence of a metabolic activation system (+S9mix), 500 μl of S9mix was added to it.
Next, 100 μl of the test strain suspension that had been cultivated with shaking at 37° C. for 8 hours was added to it, and preincubated in a shaking thermostat at 37° C. for 20 minutes. After shaken, 2 ml of top agar was added to it, and the contents were mixed.
Next, the mixture was poured onto a minimal glucose agar plate medium (plate) and spread uniformly thereon, then the top agar was solidified, and the plate was transferred into a thermostat and incubated at 37° C. for 48 hours.
Then, the number of the colonies grown through reverse mutation was counted.
For counting it, […]. After area correction and miss-counting correction, the number of the colonies was computed. When the colony analyzer could not be used owing to the deposition of the test compound or the cell growth inhibition, then the number of the colonies was counted with the naked eye.
In case where the number of the colonies through reverse mutation increased two times or more that of the negative control and where the dose dependency or the reproducibility of the increase was admitted, then the tested sample was decided as positive. When the sample was is decided as positive, then the relative activity that indicates the relative comparative value of the intensity of the mutagenicity of the test compound was obtained according to the following formula: Relative Activity={(number of colonies per plate having the concentration)−(number of colonies per negative control plate)}/the value of concentration (mg/plate).

Acute Toxicity Test = type: in vivo; details: Crj:CD1 male mice, tail vein, observed for 7 days
Protocol: The compounds of the invention were tested for their acute toxicity through intravenous administration thereof to mice. Four Crj:CD1 male mice formed one test group, and some test groups of those mice were used (the mean body weight of the mice of each group was from 31 to 32 g). A test compound was dissolved in a mixture of 1 N HCl, polyethylene glycol-400 and distilled water, or dissolved in DMSO, and then diluted with distilled water. This was administered to each mouse via its tail vein.

[5] = biological target: T2, Tg mouse intracerebral amyloid plaque (Homo sapiens, UniProt P05067); assay: Investigation of transgenic (Tg) mice with amyloid deposition in their brain (fluorescence microscopy of brain sections after intravenous administration); type: in vivo; details: APPswe2576/Tau JPL3 mouse, 4 mg/kg intravenous, 1 hour after administration
T2 construct: from tissue; host or cells: brain of Tg mice (Tg2576 or APPswe2576/Tau JNPL3) after intravenous dosing
T2 sequence (P05067 672-713 limits assumed): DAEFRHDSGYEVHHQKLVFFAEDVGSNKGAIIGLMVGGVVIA

T1 sequence (P05067 672-713 limits assumed): as above

Row | Compound | Binding to (staining of) amyloid β protein in the brain section of an Alzheimer disease patient [2] | Specificity to amyloid β [2] | Binding to (staining of) neurofibrillary tangle in the brain section of an Alzheimer disease patient [3] | other results
1 | CN(C)c1ccc(-c2cn3cc(I)ccc3n2)cc1 [IMPY] |  |  |  | Relative activity (mutagenicity) ([1]; in the presence of S9mix, literature compounds): extremely high; Relative Activity in the presence of S9Mix ([1]; reverse mutation test, +S9mix, data from PCT/JP03/07183 (WO03/106439)): minus; Relative Activity in the absence of S9Mix ([1]; reverse mutation test, -S9mix, data from PCT/JP03/07183 (WO03/106439)): 3,326,100
2 | CC(=C(C#N)C#N)c1ccc2cc(N(C)CCF)ccc2c1 [FDDNP] |  |  |  | Relative Activity in the absence of S9Mix [1]: 3,564,960; Relative Activity in the presence of S9Mix [1]: minus
3 | OCC(CF)COc1ccc2nc(/C=C/c3cnc(N4CCOCC4)s3)oc2c1 (stereo not drawn) [THK-727, 2-fluoromethyl-3-[2-[2-(2-morpholin-4-yl-thiazol-5-yl)-vinyl]-benzoxazol-6-yloxy]-propan-1-ol] | white space arrow indicates amyloid β protein |  | white space arrow head indicates neurofibrillary tangle | Relative activity (mutagenicity) ([4]; irrespective of the absence or presence of S9mix): minus; Relative Activity in the presence of S9Mix ([4]; reverse mutation test, +S9mix): minus; Relative Activity in the absence of S9Mix ([4]; reverse mutation test, -S9mix): minus; Maximum Permissible Dose (mg/kg, intravenous administration) (Acute Toxicity Test): ≧10 mg/kg; Passage through the blood-brain barrier and binding to Tg mouse intracerebral amyloid plaque [5]: passed through the blood-brain barrier, and bound to the Tg mouse intracerebral amyloid plaque

More lines, main results first:

Row | Binding to (staining of) amyloid β protein in the brain section of an Alzheimer disease patient [2] | Specificity to amyloid β [2] | Compound | Binding to (staining of) neurofibrillary tangle in the brain section of an Alzheimer disease patient [3] | other results
4 | bound to the amyloid β protein | high specificity to amyloid β | CN1C=CC(=C/C=C2\C=Nc3ccccc32)C=C1 [THK-185, 3-[2-(1-methyl-1H-pyridin-4-ylidene)-ethylidene]-3H-indole] | bound to the amyloid β protein and the neurofibrillary tangle | 
5 | bound to the amyloid β protein | high specificity to amyloid β | CN(C)c1ccc(-c2nnc(-c3sc4ccccc4c3Cl)o2)cc1 [THK-258, [4-[5-(3-chloro-benzo[b]thiophen-2-yl)-[1,3,4]oxadiazol-2-yl]-phenyl]-dimethylamine] | bound to the amyloid β protein and the neurofibrillary tangle | 
6 | bound to the amyloid β protein | high specificity to amyloid β | CN1C=CC(=CC=C2C=CC(=O)C=C2)C=C1 [THK-317, 4-[2-(1-methyl-1H-pyridin-4-ylidene)-ethylidene]-cyclohexa-2,5-dienone] | bound to the amyloid β protein and the neurofibrillary tangle | 
